Assay results reported in paper PMC4926433, “Isoquercitrin Esters with Mono- or Dicarboxylic Acids: Enzymatic Preparation and Properties” (International Journal of Molecular Sciences, 2016).
Converted amounts (≈) assume the structure as drawn. “And” between values parts separate entries of the source, which are not always exact repeats. Identical values can stand only once.

Key:
[1] = 50 °C, cited from earlier work
[2] = ABTS radical cation scavenging (Antioxidant Assay Kit); assay type: biochemical; details: Trolox equivalents; aqueous buffer pH 5; mean ± SE
Method: Determination of ABTS scavenging activity involves an electron-transfer reaction. […] The capacity to scavenge the radical cation (ABTS^·) was evaluated using the Antioxidant Assay Kit (CS0790, Sigma-Aldrich, Prague, Czech Republic) and expressed as Trolox equivalents (TE) from the Trolox calibration curve.

[3] = pH not given; cited from earlier work
[4] = DPPH radical scavenging assay; assay type: biochemical; details: methanol, DPPH 20 µM, 30 min; mean ± SE
Method: When reduced, the solution decolorizes in proportion to the strength and concentration of the antiradical compound tested. The results of this test are usually expressed as the concentration of the compound that reduces 50% of the radical (IC50, Table 1). […] However, no clear relationship between the carboxylic chain length and DPPH radical scavenging activity could be established. Antiradical activity was evaluated spectrophotometrically as the ability of the substances to reduce the DPPH radical as described previously with minor modifications.

[5] = test system: rat liver microsomal membranes; assay: Inhibition of microsomal lipid peroxidation induced by tert-butyl hydroperoxide (TBARS); assay type: biochemical; details: male rat liver microsomes, tert-butylhydroperoxide 1 mM, 37 °C, 30 min, TBARS; mean ± SE; read-out: Lpx (IC50; µM)
Source text: Lipid peroxidation is a type of oxidative degradation of lipids caused by free radicals in cell membranes, resulting in cell damage. The most notable initiators of this chain reaction in living cells are reactive oxygen species (ROS), such as OH· and HO2·, which combine with a hydrogen atom to make water and a fatty acid radical. We used tert-butyl hydroperoxide, a relatively stable organic peroxide, as initiator of peroxidation of rat liver microsomal membranes. The inhibition of this reaction depends not only on the free radical scavenging capacity, but also on the capacity of these compounds to interact with and penetrate lipid bilayers. Isoquercitrin derivatives differed considerably in their capacity to inhibit the peroxidation of microsomal membranes. […] A similar trend, e.g., improving the activity in medium chain derivatives with subsequent drop for longer chain esters, was reported for anti-proliferative activity of IQ monocarboxylic acid esters on the growth of tumoral Caco2 cells, and also for the inhibition of tyrosinase activity.
Pooled microsomes from male rat livers (M9066, Sigma-Aldrich, Prague, Czech Republic) were washed five times using centrifugation and phosphate-buffered saline (PBS, 13,500 rpm, 5 min, 4 °C) to remove sucrose. In addition, 400 µL of the diluted microsomal suspension (0.625 mg protein/mL in PBS), the compounds tested in 50 µL of dimethyl sulfoxide (DMSO, final concentration 5–2000 µM) and 50 µL of tert-butylhydroperoxide in PBS (final concentration 1 mM) were mixed and incubated at 37 °C for 30 min. Determination of lipid peroxidation products as thiobarbituric acid reactive substances (TBARS) and calculation of the IC50 values were performed as described previously.

Solubility in water = assay type: physicochemical; details: pH = 6.5, isoquercitrin purity 96.5%
Source text: The hydrophilicity/lipophilicity of a compound is often crucial for assessing its bioavailability. Flavonoids are generally poorly soluble in water; aqueous solubility increases at alkaline pH as phenols are weak acids. […] [15]).

[6] = Folin–Ciocalteau reduction (FCR) assay, reducing capacity; assay type: biochemical; details: gallic acid equivalents; mean ± SE
Method: Folin-Ciocalteu assay, commonly known as the total phenols assay, determines a sample reducing capacity. FCR contains heteropolyphosphotunstate-molybdates, which are reduced in aqueous milieu at pH ≈ 10 to blue species, presumably (PMoW11O40)^4- [29]. […] This is probably related to high hydrophobicity of these derivatives. Reducing capacity was evaluated using Folin-Ciocalteau reagent with minor modifications as described previously.

O=c1c(O[C@@H]2O[C@H](CO)[C@@H](O)[C@H](O)[C@H]2O)c(-c2ccc(O)c(O)c2)oc2cc(O)cc(O)c12 [Compound 1, quercetin-3-O-β-D-glucopyranoside, reference compound]
solubility in acetone ([1]; acetone): 14000 µg/mL (≈ 30100 µM)
solubility in acetonitrile ([1]; acetonitrile): 1800 µg/mL (≈ 3880 µM)
solubility in tert-amyl alcohol ([1]; tert-amyl alcohol): 30000 µg/mL (≈ 64600 µM)
ABTS (TE) [2]: 1.97 TE and 1.97 ± 0.06 ^i TE
solubility in water [3]: 95 µg/mL (≈ 205 µM)
IC50 [4]: 1.4 ± 0.06 µM
IC50 [5]: 972 ± 11 µM
solubility (Solubility in water): 360 µg/mL (≈ 775 µM)
FCR (GAE) [6]: 1.84 GAE and 1.84 ± 0.04 ^a GAE
